Laboratory results published in patent US8980899B2, “Methods of inhibiting Ire1” (The Regents of the University of California, priority 2009, dated 2015).

Key:
[1] = target: Recombinant human Ire1-alpha (Homo sapiens, UniProt O75460); assay: In vitro inhibition assay, cleavage of 32P-stem-loop RNA by human Ire1; format: biochemical; set-up: Ire1 activity with human Ire1 alpha: unit not given here; conditions: for Ire1 activity: in vitro cleavage of 32P-stem-loop RNA by human Ire1, AD series, Control (no inhibitor) 8.8310e−3; for Ire1 activity with human Ire1 alpha: RNA cleavage, 1 μM Ire1, 32P-labeled RNA, 30° C., Control (no inhibitor) 0.085
Sequence of Recombinant human Ire1-alpha (O75460 19-977): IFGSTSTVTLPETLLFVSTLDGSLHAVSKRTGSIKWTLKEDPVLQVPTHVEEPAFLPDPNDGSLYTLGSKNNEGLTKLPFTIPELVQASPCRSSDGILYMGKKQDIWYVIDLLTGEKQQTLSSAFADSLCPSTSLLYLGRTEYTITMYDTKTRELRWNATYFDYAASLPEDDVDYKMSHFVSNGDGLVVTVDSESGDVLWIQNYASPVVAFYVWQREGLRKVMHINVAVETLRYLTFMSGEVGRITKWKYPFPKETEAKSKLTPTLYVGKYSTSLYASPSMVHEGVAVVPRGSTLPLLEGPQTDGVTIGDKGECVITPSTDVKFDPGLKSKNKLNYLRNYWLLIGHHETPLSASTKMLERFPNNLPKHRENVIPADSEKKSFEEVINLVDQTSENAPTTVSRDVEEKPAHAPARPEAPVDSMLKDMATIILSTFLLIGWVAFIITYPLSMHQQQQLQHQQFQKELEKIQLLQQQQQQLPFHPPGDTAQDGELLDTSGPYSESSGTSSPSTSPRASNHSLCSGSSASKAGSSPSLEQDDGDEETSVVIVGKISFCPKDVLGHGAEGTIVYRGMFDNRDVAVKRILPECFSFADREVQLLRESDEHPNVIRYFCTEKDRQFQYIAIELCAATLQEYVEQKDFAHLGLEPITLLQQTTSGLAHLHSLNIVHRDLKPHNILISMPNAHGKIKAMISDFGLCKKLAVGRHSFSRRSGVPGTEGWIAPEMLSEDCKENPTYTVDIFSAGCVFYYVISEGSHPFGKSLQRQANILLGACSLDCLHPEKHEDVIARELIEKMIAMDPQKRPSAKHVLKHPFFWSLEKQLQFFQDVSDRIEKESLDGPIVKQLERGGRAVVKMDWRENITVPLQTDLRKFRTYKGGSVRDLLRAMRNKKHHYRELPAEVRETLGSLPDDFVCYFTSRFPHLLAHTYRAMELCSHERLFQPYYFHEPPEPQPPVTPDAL
Protocol: Recombinant human […]) was mixed with reaction buffer, inhibitor solution in DMSO, and ^32P-labeled RNA substrate having sequence 5'-[…] NO:1). Reactions were conducted at 30° C. and initiated by adding the RNA to reaction pre-mix containing all the components minus the RNA. […] (The reaction mixture may be modified by using different components or concentrations, different RNA substrate, or different Ire1 protein construct.) At time intervals (0 seconds, 10 seconds, 30 seconds, and 3 minutes), 1 μl aliquots of reaction mixture were taken and quenched in 10 M Urea, 0.1% SDS. Samples were analyzed by denaturing polyacrylamide gel electrophoresis and quantified using Typhoon phosphorImager. […] Reactions with Irestatin and exemplary compounds were conducted analogously. Irestatin was a gift obtained from the SPECS screen available as 5 mM solution in DMSO at UCSF small molecule discovery center.

yeast Ire1 = target: T1, yeast Ire1 (Saccharomyces cerevisiae, UniProt P32361); assay: In vitro inhibition assay, cleavage of 32P-labeled RNA by yeast Ire1; format: biochemical; conditions: for Ire1 activity with yeast Ire1: RNA cleavage, 32P-labeled RNA, 30° C., Control (no inhibitor) 0.1149
T1 sequence (P32361 19-1115): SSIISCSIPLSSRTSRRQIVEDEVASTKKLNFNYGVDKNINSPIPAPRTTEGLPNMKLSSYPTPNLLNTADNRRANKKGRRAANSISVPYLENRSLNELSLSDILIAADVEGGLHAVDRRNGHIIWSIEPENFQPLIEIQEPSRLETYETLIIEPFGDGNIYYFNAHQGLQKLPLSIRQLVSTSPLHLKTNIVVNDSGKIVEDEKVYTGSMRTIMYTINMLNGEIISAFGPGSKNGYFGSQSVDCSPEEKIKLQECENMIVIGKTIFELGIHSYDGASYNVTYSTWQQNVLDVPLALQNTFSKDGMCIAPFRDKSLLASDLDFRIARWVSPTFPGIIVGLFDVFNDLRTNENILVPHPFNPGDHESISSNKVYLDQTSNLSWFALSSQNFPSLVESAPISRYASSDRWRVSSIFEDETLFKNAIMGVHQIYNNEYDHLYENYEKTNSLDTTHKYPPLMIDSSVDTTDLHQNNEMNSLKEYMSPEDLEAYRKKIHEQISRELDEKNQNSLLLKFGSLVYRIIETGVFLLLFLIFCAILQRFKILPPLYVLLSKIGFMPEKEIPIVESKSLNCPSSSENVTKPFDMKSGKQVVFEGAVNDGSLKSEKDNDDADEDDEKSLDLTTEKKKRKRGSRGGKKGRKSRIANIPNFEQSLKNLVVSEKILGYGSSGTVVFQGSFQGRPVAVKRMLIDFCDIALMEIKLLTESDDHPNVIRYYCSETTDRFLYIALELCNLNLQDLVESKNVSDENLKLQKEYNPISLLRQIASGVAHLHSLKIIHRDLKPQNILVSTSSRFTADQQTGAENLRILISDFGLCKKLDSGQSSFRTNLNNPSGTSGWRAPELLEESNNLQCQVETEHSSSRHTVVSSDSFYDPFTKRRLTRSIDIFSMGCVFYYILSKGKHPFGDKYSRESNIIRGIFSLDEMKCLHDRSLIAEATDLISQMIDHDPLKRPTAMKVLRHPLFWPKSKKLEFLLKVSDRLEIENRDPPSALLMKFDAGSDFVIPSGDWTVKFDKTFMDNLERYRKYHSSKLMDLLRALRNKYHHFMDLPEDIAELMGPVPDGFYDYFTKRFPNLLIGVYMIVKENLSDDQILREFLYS

hIre1 = hIre1 (Homo sapiens, UniProt O75460); assay: Titrations of Ire1 inhibitors to measure Ki using 1 μM hIre1; format: biochemical; conditions: 1 μM hIre1, 5′-32p-HP21, 30° C.
Sequence of hIre1 (O75460 19-977): as the sequence (O75460 19-977) above
Protocol: Recombinant human Ire1-alpha (1 μM f/c) was mixed with reaction buffer, inhibitor solution in DMSO, and ^32P-labeled RNA substrate having sequence 5′-UGCACCUCUGCAGCAGGUGCA (SEQ ID NO:1). Reactions were conducted at 30° C. and initiated by adding the RNA to reaction pre-mix containing all the components minus the RNA. The final reaction contained: 20 mM HEPES pH 7, 70 mM NaCl, 2 mM MgCl2, 5% glycerol, 4 mM DTT, 10% DMSO, 1 μM Ire1 and <1 nM 32P-labeled RNA. (The reaction mixture may be modified by using different components or concentrations, different RNA substrate, or different Ire1 protein construct.)
At time intervals (0 seconds, ˜10 seconds, ˜30 seconds, and ˜3 minutes), 1 μl aliquots of reaction mixture were taken and quenched in 10 M Urea, 0.1% SDS. Samples were analyzed by denaturing polyacrylamide gel electrophoresis and quantified using Typhoon phosphorImager.
Inhibition was measured by the extent of RNA cleavage slowdown in the presence of inhibitor (0.3-100 μM) compared to reaction containing no inhibitors.

yIre1 = target: T2, yIre1 (Saccharomyces cerevisiae, UniProt P32361); assay: RNase cleavage assay (yIre1 activation); format: biochemical, yeast; conditions: yIre1 RNA cleavage, 30° C., 2 mM ADP; Control (no inhibitor) 0.000504
T2 sequence (P32361 19-1115): T1 sequence (P32361 19-1115)
Protocol: RNA cleavage reactions were conducted at 30° C. in buffer containing 20 mM HEPES (pH 7.5), 70 mM NaCl, 2 mM ADP (pH 7.0), 2 mM Mg(OAc)2, 5 mM DTT, 5% glycerol, less than 1 nM ^32p-labeled RNA substrate, and 3 nM-[…] Ire1. Reaction solutions and buffers were designed using Biochem Lab Solutions 3.5. Reactions were prepared such that 1 μl of RNA was added to 9 μl of pre-warmed reaction mixture containing all components except RNA. Typically, 3-10 minute time courses were collected starting from 5 seconds for the first time point. At time intervals, 1 μl of solution was withdrawn from each reaction and mixed with 6 μl stop solution containing 10 M urea, 0.1% SDS, 0.1 mM EDTA, 0.05% xylene cyanol, and 0.05% bromophenol blue. The samples were separated by a denaturing 10% PAGE and exposed on a phosphor storage screen. The screens were scanned on a Storm or a Typhoon instrument and quantified using ImageQuant 5.0 or GelQuant.NET 1.4 programs. The data were plotted and fit in SigmaPlot 6.0.

SMILES: Nc1ncnc2c1c(-c1ccc(NC(=O)Nc3cccc(C(F)(F)F)c3)cc1)nn2[C@@H]1CCOC1 [AD69, 1-(4-(4-amino-1-((R)-tetrahydrofuran-3-yl)-1H-pyrazolo[3,4-d]pyrimidin-3-yl)phenyl)-3-(3-(trifluoromethyl)phenyl)urea]
- Ire1 activity [1]: 0.0127

SMILES: Nc1ncnc2c1c(Cc1cccc(NC(=O)c3cccc(C(F)(F)F)c3)c1)nn2Cc1ccccc1 [BB5, N-(3-((4-amino-1-benzyl-1H-pyrazolo[3,4-d]pyrimidin-3-yl)methyl)phenyl)-3-(trifluoromethyl)benzamide]
- Ire1 activity with yeast Ire1 (yeast Ire1): 5.00E−03
- Ire1 activity with human Ire1 alpha [1]: 0.1247

SMILES: Nc1ncnc2c1c(-c1ccc(NC(=O)c3cccc(C(F)(F)F)c3)cc1)nn2CCCO [AD65]
- Ki (hIre1): ~30 µM

SMILES: Nc1ncnc2c1c(-c1ccc(NC(=O)Nc3cccc(C(F)(F)F)c3)cc1)nn2C1CCCC1 [AD60, 1-(4-(4-amino-1-cyclopentyl-1H-pyrazolo[3,4-d]pyrimidin-3-yl)phenyl)-3-(3-(trifluoromethyl)phenyl)urea]
- inhibition of yIre1 (in words) (yeast Ire1): can inhibit
- Ire1 activity with yeast Ire1 (yeast Ire1): 2.42E−03
- inhibition of hIre1 (in words) [1]: can inhibit
- Ire1 activity with human Ire1 alpha [1]: 0.02258
- Ire1 activity [1]: 4.0180e−3
- Ire1 activity (yIre1): 4.04E−05

SMILES: CNC(=O)c1cc(Oc2ccc(NC(=O)Nc3ccc(Cl)c(C(F)(F)F)c3)cc2)ccn1 [Sorafenib, reference compound]
- Ire1 activity with yeast Ire1 (yeast Ire1): 0.0683
- Ire1 activity with human Ire1 alpha [1]: 0.03645

SMILES: CC(C)n1nc(-c2ccc(NC(=O)Nc3cccc(C(F)(F)F)c3)cc2)c2c(N)ncnc21 [AD57, 1-(4-(4-amino-1-isopropyl-1H-pyrazolo[3,4-d]pyrimidin-3-yl)phenyl)-3-(3-(trifluoromethyl)phenyl)urea]
- Ire1 activity with yeast Ire1 (yeast Ire1): 3.26E−03
- Ire1 activity with human Ire1 alpha [1]: 0.05508

SMILES: Nc1ncnc2c1c(-c1ccc(NC(=O)c3cccc(C(F)(F)F)c3)cc1)nn2[C@@H]1CCNC1 [AD72, N-(4-(4-amino-1-((R)-pyrrolidin-3-yl)-1H-pyrazolo[3,4-d]pyrimidin-3-yl)phenyl)-3-(trifluoromethyl)benzamide]
- Ire1 activity [1]: 6.4950e−3

SMILES: Nc1ncnc2c1c(-c1ccc(NC(=O)Nc3cccc(C(F)(F)F)c3)cc1)nn2[C@H]1CCN(C(=O)Nc2cccc(C(F)(F)F)c2)C1 [AD71c]
- Ire1 activity [1]: 1.2650e−3

SMILES: Nc1ncnc2c1c(-c1ccc(NC(=O)Nc3cccc(C(F)(F)F)c3)cc1)nn2[C@H]1CCOC1 [AD66, 1-(4-(4-amino-1-((S)-tetrahydrofuran-3-yl)-1H-pyrazolo[3,4-d]pyrimidin-3-yl)phenyl)-3-(3-(trifluoromethyl)phenyl)urea]
- Ire1 activity [1]: 0.0107

SMILES: Nc1ncnc2c1c(-c1ccc(NC(=O)c3cccc(C(F)(F)F)c3)cc1)nn2[C@H]1CCNC1 [AD70, N-(4-(4-amino-1-((S)-pyrrolidin-3-yl)-1H-pyrazolo[3,4-d]pyrimidin-3-yl)phenyl)-3-(trifluoromethyl)benzamide]
- Ire1 activity [1]: 9.0580e−3

SMILES: CC(C)n1nc(Cc2cccc(NC(=O)Nc3cccc(C(F)(F)F)c3)c2)c2c(N)ncnc21 [AD36, 1-(3-((4-amino-1-isopropyl-1H-pyrazolo[3,4-d]pyrimidin-3-yl)methyl)phenyl)-3-(3-(trifluoromethyl)phenyl)urea]
- Ire1 activity with yeast Ire1 (yeast Ire1): 1.05E−03
- Ire1 activity with human Ire1 alpha [1]: 0.09575
- Ire1 activity (yIre1): 0.000322

SMILES: Nc1ncnc2c1c(-c1ccc(NC(=O)c3cccc(C(F)(F)F)c3)cc1)nn2[C@@H]1CCOC1 [AD68, N-(4-(4-amino-1-((R)-tetrahydrofuran-3-yl)-1H-pyrazolo[3,4-d]pyrimidin-3-yl)phenyl)-3-(trifluoromethyl)benzamide]
- Ire1 activity [1]: 8.4550e−3

SMILES: Nc1ncnc2c1c(Cc1cccc(NC(=O)Nc3cccc(C(F)(F)F)c3)c1)nn2Cc1ccccc1 [BB6, 1-(3-((4-amino-1-benzyl-1H-pyrazolo[3,4-d]pyrimidin-3-yl)methyl)phenyl)-3-(3-(trifluoromethyl)phenyl)urea]
- Ire1 activity with yeast Ire1 (yeast Ire1): 3.00E−03
- Ire1 activity with human Ire1 alpha [1]: 0.1506

SMILES: Nc1ncnc2c1c(-c1ccc(NC(=O)c3cccc(C(F)(F)F)c3)cc1)nn2[C@H]1CCOC1 [AD67, N-(4-(4-amino-1-((S)-tetrahydrofuran-3-yl)-1H-pyrazolo[3,4-d]pyrimidin-3-yl)phenyl)-3-(trifluoromethyl)benzamide]
- Ire1 activity [1]: 0.0100

SMILES: Nc1ncnc2c1c(-c1ccc(NC(=O)Nc3cccc(C(F)(F)F)c3)cc1)nn2CCCO [AD64]
- Ire1 activity [1]: 6.9280e−4
- Ki (hIre1): ~1 µM
